Converted amounts (≈) assume the structure as drawn.
Experiments:
Rattus norvegicus = conditions: mortality
Pimephales promelas = conditions: chronic/long-term; duration: 33 days; growth
Canidae = conditions: chronic; duration: 1 years; oral; Dog Other; histopathology: nonneoplastic
Tagia sp. = conditions: acute; duration: 14 days; mortality
Daphnia magna = conditions: chronic/long-term; duration: 22 days; reproduction
Neomysis kadiakensis = conditions: acute; duration: 96 hours; mortality
Apis mellifera = conditions: acute, duration: 48 hours, mortality
Cyprinodon variegatus = conditions: acute; duration: 96 hours; mortality

COC(=O)CC(NC(=O)[C@@H](NC(=O)OC(C)C)C(C)C)c1ccc(Cl)cc1 (stereo partly specified) [Valifenalate]
LD50 (Rattus norvegicus; acute, oral): > 5000 mg/kg | NOAEL (Rattus norvegicus; reproduction developmental): 80 mg/kg-day | NOEC (Pimephales promelas): 12 mg/L | NOAEL (Canidae): 7 mg/kg-day | LC50 (Tagia sp.): > 1000 mg/kg | NOEC (Daphnia magna): 3.2 mg/L | LC50 (Neomysis kadiakensis): 2.8 µg/mL (≈ 7.02 µM) | LD50 (Apis mellifera; dermal): > 100 µg/piece | LD50 (Apis mellifera; oral, unspecified): > 107 µg/piece | LC50 (Colinus virginianus; acute, oral, diet, mortality): > 1510 mg/kg-day | LD50 (Colinus virginianus; acute, oral, mortality): > 2250 mg/kg | NOAEL (Colinus virginianus; reproduction developmental, reproduction): 104 mg/kg-day | LC50 (Cyprinodon variegatus): > 15 µg/mL | LD50 (Anas platyrhynchos; acute, oral, unspecified, mortality): > 2250 mg/kg | NOAEL (Anas platyrhynchos; reproductive, reproduction): 167 mg/kg-day | LC50 (Anas platyrhynchos; short-term, oral, feed, mortality): > 2650 mg/kg-day

— EPA's ToxValDB 9.5 (doi:10.2903/j.efsa.2013.3253)
